Assay results as given in the NIST ThermoML archive (doi:10.1021/je8006088).
± gives the expanded uncertainty stated by the source.

Details: Crystal; visual observation

Normal melting temperature: 120.6 ± 1.1 °C
Structure (SMILES): CC(C)=CCC[C@@H](C)[C@H]1CC[C@H]2[C@@H]3CC=C4C[C@@H](O)CC[C@]4(C)[C@H]3CC[C@]12C [desmosterol]
